US20110281947A1, “METHODS OF ADMINISTERING DICLOFENAC COMPOSITIONS FOR TREATING PHOTODAMAGED SKIN” (priority 2004, published 2011)

Test: Topical application of NSAID with hyaluronic acid to patients: side effects and pain relief
Assay type: in vivo, human
Conditions: for relief of pain: patients using combination with hyaluronic acid (sodium hyaluronate)
Text: (This may be in part because of the clearing of the hyaluronic acid through the lymphatic system from the site).

Row | Compound | major toxic side effects (gastro-intestinal distress, neurological abnormalities, depression) (dissolved in n-methyl glucamine, applied topically with hyaluronic acid, even at elevated amounts) | relief of pain
1 | COc1ccc2c(c1)c(CC(=O)O)c(C)n2C(=O)c1ccc(Cl)cc1 [indomethacin] | no major toxic side effects occur | dramatic relief of pain immediately
2 | O=C(O)Cc1ccccc1Nc1c(Cl)cccc1Cl [diclofenac, Ortho-((2,6-dichlorophenyl)amino)phenylacetic acid] |  | dramatic relief of pain immediately
